The record followed here is patent US20100035824A1, “Synergistic Pharmaceutical Composition” (priority 2005, published 2010).

In the assay the test system is collagen-induced thrombocyte aggregation of human blood plasma which is rich of platelets. Briefly: Collagen-induced thrombocyte aggregation in platelet-rich human plasma (aggregometry).

Experimental: While the other conditions of the experiment remained the same as in Example 1, the collagen-induced thrombocyte aggregation was measured with different concentrations of genistein and glutamic acid dipeptide.

`O=c1c(-c2ccc(O)cc2)coc2cc(O)cc(O)c12` [genistein, Genistein]: the maximum thrombocyte aggregation is listed as 25% (Example 3: 50 uM genistein, absence of glutamic acid dipeptide); “about 60%” (Example 4: 50 uM genistein, 0 uM alanine dipeptide, control about 70%); “about 35%” (genistein 100 uM, collagen-induced, control without genistein about 65%); “about 23%” (genistein 150 uM, collagen-induced, control about 65%); “about 5%” (genistein 200 uM, collagen-induced, control about 65%).

As to glutamic acid dipeptide, the thrombocyte aggregation entry (glutamic acid dipeptide 100 μmolar, without genistein, control 65%) was “about 60%”.
